Values joined by “and” are separate entries in the source; they are usually repeats but may differ in a detail not shown here. Equal values may be shown once. Toxic doses and inconclusive results are not listed. The calls were made as follows: active = survival T/C of 150% or more; inactive = T/C below 125% in these data.
System: CD2F1 mice, L1210 leukemia ip, survival T/C
Experiment: NCI In Vivo Anticancer Drug Screen. Data for tumor model L1210 Leukemia (intraperitoneal) in CD2F1 (CDF1) mice
Details: higher = longer survival
Method in brief: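 Implant tumor; dose compound or vehicle; measure endpoint in both groups; report treated divided by control.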

[1] = endpoint: mean survival time, dose: 100.0 mg/kg/injection, schedule: Q01DX009 (ip), vehicle: saline with Tween-80
[2] = endpoint: mean survival time, dose: 100.0 mg/kg/injection, schedule: Q04DX003 (ip), vehicle: saline with Tween-80
[3] = endpoint: mean survival time, dose: 200.0 mg/kg/injection, schedule: Q01DX009 (ip), vehicle: saline with Tween-80
[4] = endpoint: mean survival time, dose: 200.0 mg/kg/injection, schedule: Q04DX003 (ip), vehicle: saline with Tween-80
[5] = endpoint: mean survival time, dose: 400.0 mg/kg/injection, schedule: Q01DX009 (ip), vehicle: saline with Tween-80
[6] = endpoint: mean survival time, dose: 400.0 mg/kg/injection, schedule: Q04DX003 (ip), vehicle: saline with Tween-80
[7] = endpoint: mean survival time, dose: 100.0 mg/kg/injection, schedule: Q04DX002 (ip), vehicle: saline with Tween-80
[8] = endpoint: mean survival time, dose: 200.0 mg/kg/injection, schedule: Q04DX002 (ip), vehicle: saline with Tween-80
[9] = endpoint: mean survival time, dose: 400.0 mg/kg/injection, schedule: Q04DX002 (ip), vehicle: saline with Tween-80
[10] = endpoint: mean survival time, dose: 50.0 mg/kg/injection, schedule: Q01DX009 (ip), vehicle: Klucel (hydroxypropylcellulose) (HPC)
[11] = endpoint: mean survival time, dose: 100.0 mg/kg/injection, schedule: Q01DX001 (ip), vehicle: saline
[12] = endpoint: mean survival time, dose: 200.0 mg/kg/injection, schedule: Q01DX001 (ip), vehicle: saline

Measured: T/C

c1ccc(-c2csc3c4ccccc4c4ccccc4[n+]23)cc1
inactive: endpoint: mean survival time, dose: 0.5 mg/kg/injection, schedule: Q01DX009 (ip), vehicle: saline 104 % of control | endpoint: mean survival time, dose: 1.0 mg/kg/injection, schedule: Q01DX009 (ip), vehicle: saline 112 % of control | endpoint: mean survival time, dose: 2.0 mg/kg/injection, schedule: Q01DX009 (ip), vehicle: saline 112 % of control | endpoint: mean survival time, dose: 4.0 mg/kg/injection, schedule: Q01DX009 (ip), vehicle: saline 106 % of control | endpoint: mean survival time, dose: 8.0 mg/kg/injection, schedule: Q01DX009 (ip), vehicle: saline 101 % of control

CCC(C)(O)C1CC1 (stereo not drawn)
inactive: endpoint: mean survival time, dose: 100.0 mg/kg/injection, schedule: Q01DX001 (ip), vehicle: saline with Tween-80 98 % of control | endpoint: mean survival time, dose: 200.0 mg/kg/injection, schedule: Q01DX001 (ip), vehicle: saline with Tween-80 103 % of control | endpoint: mean survival time, dose: 400.0 mg/kg/injection, schedule: Q01DX001 (ip), vehicle: saline with Tween-80 104 % of control

CCOC(=O)c1cnn(CCO)c1N
inactive: endpoint: mean survival time, dose: 50.0 mg/kg/injection, schedule: Q04DX003 (ip), vehicle: water 100 % of control | endpoint: mean survival time, dose: 100.0 mg/kg/injection, schedule: Q04DX003 (ip), vehicle: water 97 % of control | endpoint: mean survival time, dose: 200.0 mg/kg/injection, schedule: Q04DX003 (ip), vehicle: water 101 % of control | endpoint: mean survival time, dose: 400.0 mg/kg/injection, schedule: Q04DX003 (ip), vehicle: water 103 % of control and 107 % of control | endpoint: mean survival time, dose: 600.0 mg/kg/injection, schedule: Q04DX003 (ip), vehicle: water 101 % of control | endpoint: mean survival time, dose: 800.0 mg/kg/injection, schedule: Q04DX003 (ip), vehicle: water 105 % of control

CN(C)CCSCC(=O)N1c2ccccc2Sc2ccccc21
inactive: endpoint: mean survival time, dose: 100.0 mg/kg/injection, schedule: Q04DX003 (ip), vehicle: saline 96 % of control

CC1OC(n2cc(Cl)c(=O)[nH]c2=O)C2OC(C)(C)OC2C1=O (stereo not drawn)
inactive: endpoint: median survival time, dose: 25.0 mg/kg/injection, schedule: Q01DX005 (ip), vehicle: Klucel (hydroxypropylcellulose) (HPC) 102 % of control | endpoint: median survival time, dose: 50.0 mg/kg/injection, schedule: Q01DX005 (ip), vehicle: Klucel (hydroxypropylcellulose) (HPC) 100 % of control | endpoint: median survival time, dose: 100.0 mg/kg/injection, schedule: Q01DX005 (ip), vehicle: Klucel (hydroxypropylcellulose) (HPC) 102 % of control | endpoint: median survival time, dose: 200.0 mg/kg/injection, schedule: Q01DX005 (ip), vehicle: Klucel (hydroxypropylcellulose) (HPC) 107 % of control

O=[N+]([O-])c1ccc2c(c1)CS(=O)(=O)O2
inactive: [1] 109 % of control | [2] 103 % of control | [3] 107 % of control | [4] 100 % of control | [5] 107 % of control | [6] 95 % of control

CN(Cc1cnc(N)c(C#N)n1)c1ccc(C(=O)NC(CCC(=O)OC(C)(C)C)C(=O)OC(C)(C)C)cc1 (stereo not drawn)
inactive: [7] 91 % of control | [8] 91 % of control | [9] 102 % of control

O=c1[nH]c(/C=C/C=C/c2ccccc2)c([N+](=O)[O-])c(=O)[nH]1
inactive: endpoint: mean survival time, dose: 50.0 mg/kg/injection, schedule: Q04DX002 (ip), vehicle: Klucel (hydroxypropylcellulose) (HPC) 98 % of control | endpoint: mean survival time, dose: 100.0 mg/kg/injection, schedule: Q04DX002 (ip), vehicle: Klucel (hydroxypropylcellulose) (HPC) 91 % of control and 94 % of control | endpoint: mean survival time, dose: 200.0 mg/kg/injection, schedule: Q04DX002 (ip), vehicle: Klucel (hydroxypropylcellulose) (HPC) 88 % of control and 94 % of control | endpoint: mean survival time, dose: 400.0 mg/kg/injection, schedule: Q04DX002 (ip), vehicle: Klucel (hydroxypropylcellulose) (HPC) 98 % of control

CC1C(O)=C(c2ccccc2)P(=O)(Cc2ccccc2)C1C (stereo not drawn)
inactive: [10] 104 % of control | endpoint: mean survival time, dose: 100.0 mg/kg/injection, schedule: Q01DX009 (ip), vehicle: Klucel (hydroxypropylcellulose) (HPC) 93 % of control | endpoint: mean survival time, dose: 200.0 mg/kg/injection, schedule: Q01DX009 (ip), vehicle: Klucel (hydroxypropylcellulose) (HPC) 93 % of control

N#CC(C#N)=C1c2ccccc2C(=O)c2ccccc21
inactive: [1] 90 % of control | [3] 86 % of control | [5] 90 % of control

CN(C)/C=N/NC(=O)C(O)c1ccccc1 (stereo not drawn)
inactive: [1] 102 % of control | [3] 102 % of control | [5] 100 % of control

CN(N=Nc1ccc(C(N)=O)cc1)C(C)(C)C
inactive: endpoint: mean survival time, dose: 18.75 mg/kg/injection, schedule: Q01DX009 (ip), vehicle: Klucel (hydroxypropylcellulose) (HPC) 97 % of control | endpoint: mean survival time, dose: 37.5 mg/kg/injection, schedule: Q01DX009 (ip), vehicle: Klucel (hydroxypropylcellulose) (HPC) 101 % of control | endpoint: mean survival time, dose: 75.0 mg/kg/injection, schedule: Q01DX009 (ip), vehicle: Klucel (hydroxypropylcellulose) (HPC) 100 % of control | endpoint: mean survival time, dose: 150.0 mg/kg/injection, schedule: Q01DX009 (ip), vehicle: Klucel (hydroxypropylcellulose) (HPC) 106 % of control | endpoint: mean survival time, dose: 300.0 mg/kg/injection, schedule: Q01DX009 (ip), vehicle: Klucel (hydroxypropylcellulose) (HPC) 119 % of control

Cc1ccc(S(=O)(=O)NNC(=O)c2ccccc2C(=O)O)cc1
inactive: endpoint: mean survival time, dose: 50.0 mg/kg/injection, schedule: Q04DX002 (ip), vehicle: saline with Tween-80 96 % of control | [7] 100 % of control | [8] 100 % of control | [9] 96 % of control

FC(F)(F)c1cccc([PH+](c2cccc(C(F)(F)F)c2)c2cccc(C(F)(F)F)c2)c1.FC(F)(F)c1cccc([PH+](c2cccc(C(F)(F)F)c2)c2cccc(C(F)(F)F)c2)c1.[Cl][Hg][Cl]
inactive: endpoint: mean survival time, dose: 12.5 mg/kg/injection, schedule: Q01DX009 (ip), vehicle: Klucel (hydroxypropylcellulose) (HPC) 101 % of control | endpoint: mean survival time, dose: 25.0 mg/kg/injection, schedule: Q01DX009 (ip), vehicle: Klucel (hydroxypropylcellulose) (HPC) 108 % of control | [10] 89 % of control

CCCC(C)(CC)NC(=O)OCC (stereo not drawn)
inactive: [11] 107 % of control | [12] 111 % of control | endpoint: mean survival time, dose: 400.0 mg/kg/injection, schedule: Q01DX001 (ip), vehicle: saline 111 % of control

O=C(O)C1CCC(CC2CCCCC2)CC1 (stereo not drawn)
inactive: [2] 93 % of control | [4] 94 % of control | [6] 104 % of control

CC(=O)Oc1ccc(/C=C2\CCOC2=O)cc1
inactive: endpoint: mean survival time, dose: 7.82 mg/kg/injection, schedule: Q01DX005 (ip), vehicle: Klucel (hydroxypropylcellulose) (HPC) 112 % of control | endpoint: mean survival time, dose: 15.63 mg/kg/injection, schedule: Q01DX005 (ip), vehicle: Klucel (hydroxypropylcellulose) (HPC) 101 % of control | endpoint: mean survival time, dose: 31.25 mg/kg/injection, schedule: Q01DX005 (ip), vehicle: Klucel (hydroxypropylcellulose) (HPC) 106 % of control | endpoint: mean survival time, dose: 62.5 mg/kg/injection, schedule: Q01DX005 (ip), vehicle: Klucel (hydroxypropylcellulose) (HPC) 107 % of control | endpoint: mean survival time, dose: 125.0 mg/kg/injection, schedule: Q01DX005 (ip), vehicle: Klucel (hydroxypropylcellulose) (HPC) 109 % of control | endpoint: mean survival time, dose: 250.0 mg/kg/injection, schedule: Q01DX005 (ip), vehicle: Klucel (hydroxypropylcellulose) (HPC) 109 % of control

COc1c(C2OC(CO)C(O)C2O)nn(C)c1C(N)=O (stereo not drawn)
inactive: endpoint: median survival time, dose: 48.5 mg/kg/injection, schedule: Q01DX005 (ip), vehicle: saline 100 % of control | endpoint: median survival time, dose: 97.0 mg/kg/injection, schedule: Q01DX005 (ip), vehicle: saline 102 % of control | endpoint: median survival time, dose: 193.9 mg/kg/injection, schedule: Q01DX005 (ip), vehicle: saline 100 % of control

Oc1ccc(C/C=C/c2ccccc2)cc1
inactive: [2] 102 % of control | [4] 100 % of control | [6] 102 % of control

O=C(Nc1ccc(C2=NCCN2)cc1)c1ccc(C(=O)Nc2ccc(C3=NCCN3)cc2)c(NC(=O)c2ccc(C(=O)Nc3cc(C(=O)Nc4ccc(C5=NCCN5)cc4)ccc3C(=O)Nc3ccc(C4=NCCN4)cc3)cc2)c1
inactive: endpoint: mean survival time, dose: 12.5 mg/kg/injection, schedule: Q01DX008 (iv), vehicle: other 101 % of control | endpoint: mean survival time, dose: 25.0 mg/kg/injection, schedule: Q01DX008 (iv), vehicle: other 101 % of control | endpoint: mean survival time, dose: 50.0 mg/kg/injection, schedule: Q01DX008 (iv), vehicle: other 103 % of control

Nc1nc(Cl)c2ncn(C3CC(O)C(CO)C3)c2n1 (stereo not drawn)
inactive: endpoint: mean survival time, dose: 100.0 mg/kg/injection, schedule: Q01DX009 (ip), vehicle: saline 106 % of control | endpoint: mean survival time, dose: 200.0 mg/kg/injection, schedule: Q01DX009 (ip), vehicle: saline 106 % of control

CC(C)/C=N\O
inactive: endpoint: mean survival time, dose: 50.0 mg/kg/injection, schedule: Q01DX001 (ip), vehicle: saline 107 % of control | [11] 110 % of control | [12] 107 % of control

C[SeH]C.C[SeH]C.O.O=S(=O)(O)O.[Pt]
inactive: endpoint: mean survival time, dose: 12.5 mg/kg/injection, schedule: Q04DX003 (ip), vehicle: other 89 % of control | endpoint: mean survival time, dose: 25.0 mg/kg/injection, schedule: Q04DX003 (ip), vehicle: other 101 % of control | endpoint: mean survival time, dose: 50.0 mg/kg/injection, schedule: Q04DX003 (ip), vehicle: other 103 % of control | endpoint: mean survival time, dose: 100.0 mg/kg/injection, schedule: Q04DX003 (ip), vehicle: other 107 % of control

From PubChem BioAssay AID256 (DTP/NCI, 2004)
